Reference: patent US10344019B2 (priority 2010, dated 2019)
Read-outs that look alike come from different tables or passages of the source.

Legend:
Type in all cases: cell-based
[1] = test system: HCV 1a RLuc cells (dicistronic genotype 1a H77 replicon, RLuc reporter); assay: microbe, parasite or virus in culture; settings: Hepatitis C virus, read-out: 1a
Method in brief: (§1)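 Replicons used: genotype 1b Con1, 1a H77, 2a JFH-1, and a 2a JFH-1 chimera with J6-strain NS5A (M31 present), all dicistronic.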

[2] = test system: HCV 1b RLuc cells (dicistronic genotype 1b Con1 replicon, RLuc reporter); assay: microbe, parasite or virus in culture; settings: Hepatitis C virus, read-out: 1b (nM)
Method in brief: as §1

[3] = test system: HCV 2a JFH-1 Rluc cells (dicistronic genotype 2a JFH-1 replicon, RLuc reporter); assay: microbe, parasite or virus in culture; settings: Hepatitis C virus, read-out: 2a JFH
Method in brief: as §1

[4] = test system: HCV 2b Rluc cells (NS5A chimeric genotype 2a JFH-1 replicon with genotype 2b MD2b-1 NS5A gene, M31 present); assay: microbe, parasite or virus in culture; settings: read-out: 2b
Method in brief: (§2)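 Replicon cells stably carrying the listed RLuc-encoding dicistronic replicons were seeded and treated with DMSO serial dilutions of compound (10 mM stocks) diluted into culture medium. After 72 h, cells were lysed and Renilla luciferase activity measured. EC50 was derived by non-linear regression.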

[5] = test system: HCV 4a Rluc cells (NS5A chimeric genotype 1b Con1 replicon with genotype 4a NS5A gene); assay: microbe, parasite or virus in culture; settings: read-out: 4a
Method in brief: as §2

[6] = test system: Q30R in genotype 1a NS5A, 1a Rluc replicon transfected into Huh-7 cured-51 cells; assay: HCV replicon assay, resistance mutant 1a Q30R
Method: Evaluation of cell-based anti-HCV activity: Antiviral potency (EC50) was determined using a Renilla luciferase (RLuc)-based HCV replicon reporter assay. To perform the assay for genotype 1 and 2a JFH-1, HCV 1b RLuc cells (harboring a dicistronic genotype 1b Con1 replicon that encodes a RLuc reporter), or HCV 1a RLuc cells (harboring a dicistronic genotype 1a H77 replicon that encodes a RLuc reporter), or HCV 2a JFH-1 Rluc cells (harboring a dicistronic genotype 2a JFH-1 replicon that encodes a RLuc reporter) were dispensed into 384-well plates. To perform the assay for genotype 2a (with M31 present) or 2b, HCV 2a Rluc or 2b Rluc cells (both with M31 present) harboring a dicistronic NS5A chimeric genotype 2a JFH-1 replicon that encodes a RLuc reporter and either genotype 2a J6 strain NS5A gene or genotype 2b MD2b-1 NS5A gene (based on Los Alamos HCV database isolates, both with M31 present) respectively, were dispensed into 384-well plates. To perform the assay for genotype 3 and 4, HCV 3a RLuc or 4a Rluc cells harboring a dicistronic NS5A chimeric genotype 1b Con1 replicon that encodes a RLuc reporter and either a consensus genotype 3a NS5A gene or genotype 4a NS5A gene (based on Los Alamos HCV database isolates) respectively, were dispensed into 384-well plates. Compounds were re-suspended in DMSO at a concentration of 10 mM and serially diluted in DMSO either manually or using an automated pipeting instrument. Serially diluted compounds were mixed with cell culture media and added to the seeded cells. […] 72 hours later, cells were lysed and Renilla luciferase activity quantified as recommended by the manufacturer (Promega-Madison, Wis.). Non-linear regression was performed to calculate EC50 values.
To determine the antiviral potency (EC50) against resistance mutants, resistance mutations, including M28T, Q30R, Q30H, L31M, and Y93C in genotype 1a NS5A and Y93H in genotype 1b NS5A, were introduced individually into either 1a Rluc or 1b Rluc replicons described above by site directed mutagenesis. Replicon RNA of each resistant mutant was transfected into Huh-7 cured-51 cells and antiviral potency was determined on these transfected cells as described above.

[7] = test system: HCV 2a Rluc cells (NS5A chimeric genotype 2a JFH-1 replicon with genotype 2a J6 strain NS5A gene, M31 present); assay: HCV replicon reporter assay, genotype 2a J6 (M31 present); settings: read-out: 2a J6
Method in brief: as §1

[8] = test system: HCV 3a RLuc cells (NS5A chimeric genotype 1b Con1 replicon with consensus genotype 3a NS5A gene); assay: microbe, parasite or virus in culture; settings: Hepatitis C virus
Method in brief: as §2

[9] = genotype 2a JFH-1 RLuc replicon
[10] = Hepatitis C virus, Huh-7, read-out: 1a Q30R
[11] = read-out: 3a, genotype 3a replicon
[12] = read-out: 3a, genotype 3a NS5A chimeric replicon

SMILES | EC50 ([1]; genotype 1a H77 RLuc replicon) [nM] | EC50 [2] [nM] | EC50 [3, 9] [nM] | EC50 ([4]; Hepatitis C virus) [nM] | EC50 ([5]; Hepatitis C virus) [nM] | EC50 [6, 10] [nM] | EC50 ([7]; Hepatitis C virus) [nM] | EC50 ([1]; genotype 1a replicon) [nM] | EC50 ([3]; genotype 2a JFH-1 replicon) [nM] | EC50 [8, 11] [nM] | EC50 [8, 12] [nM] | EC50 ([4]; genotype 2b NS5A chimeric replicon, M31 present) [nM] | EC50 ([5]; genotype 4a NS5A chimeric replicon) [nM] | EC50 ([6]; read-out: 1a Q30R, genotype 1a NS5A Q30R resistance mutant) [nM] | EC50 ([7]; genotype 2a J6 NS5A chimeric replicon, M31 present) [nM]
COC(=O)N[C@H](C(=O)N1C[C@@H](COC(F)F)C[C@H]1c1nc2ccc3cc4c(cc3c2[nH]1)OCc1cc(-c2cnc([C@@H]3CCCN3C(=O)[C@H](NC(=O)OC)c3ccccc3)[nH]2)ccc1-4)C(C)C [Example 558] | 0.001 to 0.999 | 0.014 | 0.001 to 0.999 | 0.001 to 0.999 | 0.001 to 0.99 | 0.001 to 0.999 | 0.001 to 0.999 |  |  |  |  |  |  |  | 
COC(=O)N[C@H](C(=O)N1CCC[C@H]1c1nc2c([nH]1)-c1cc3c(cc1CC2)-c1ccc(-c2cnc([C@@H]4CCCN4C(=O)[C@H](NC(=O)OC)c4ccccc4)[nH]2)cc1CO3)C(C)C [Example 435] |  |  |  | 0.001 to 0.999 | 0.001 to 0.99 | 0.001 to 0.999 | 0.001 to 0.999 | 0.001 to 0.999 | 0.001 to 0.999 | 0.001 to 0.99 |  |  |  |  | 
COC[C@H]1C[C@@H](c2nc3c([nH]2)-c2cc4c(cc2CC3)-c2ccc(-c3cnc([C@@H]5CCCN5C(=O)[C@@H](NC(=O)OC)C(C)C)[nH]3)cc2CO4)N(C(=O)[C@H](NC(=O)OC)c2ccccc2)C1 [Example 587] | 0.001 to 0.999 |  | 0.001 to 0.999 | 0.001 to 0.999 | 0.001 to 0.99 | 0.001 to 0.999 | 0.001 to 0.999 |  |  |  | 0.001 to 0.99 |  |  |  | 
COC[C@H]1C[C@@H](c2nc3ccc4cc5c(cc4c3[nH]2)OCc2cc(-c3cnc([C@@H]4CCCN4C(=O)[C@@H](NC(=O)OC)C(C)C)[nH]3)ccc2-5)N(C(=O)[C@H](NC(=O)OC)c2ccccc2)C1 [Example 538] | 0.001 to 0.999 |  | 0.001 to 0.999 | 0.001 to 0.999 | 0.001 to 0.99 | 0.001 to 0.999 | 0.001 to 0.999 |  |  |  | 0.001 to 0.99 |  |  |  | 
COC[C@H]1C[C@@H](c2nc3ccc4cc(-c5ccc6c(ccc7nc([C@@H]8CCCN8C(=O)[C@@H](NC(=O)OC)C(C)C)[nH]c76)c5)ccc4c3[nH]2)N(C(=O)[C@H](NC(=O)OC)c2ccccc2)C1 [Example 540] | 0.001 to 0.999 |  | 0.001 to 0.999 |  |  |  |  |  |  |  | 0.001 to 0.99 | 0.001 to 0.999 | 0.001 to 0.99 | 0.001 to 0.999 | 0.001 to 0.999
COC(=O)N[C@H](C(=O)N1CCC[C@H]1c1ncc(-c2ccc3c(c2)COc2cc4c(ccc5nc([C@@H]6C[C@H](C)CN6C(=O)[C@H](NC(=O)OC)c6ccccc6)[nH]c54)cc2-3)[nH]1)C(C)C [Example 543] | 0.001 to 0.999 |  | 0.001 to 0.999 | 0.001 to 0.999 | 0.001 to 0.99 | 0.001 to 0.999 | 0.001 to 0.999 |  |  |  | 0.001 to 0.99 |  |  |  | 
COC(=O)N[C@H](C(=O)N1CCC[C@H]1c1ncc(-c2ccc3c(c2)COc2cc4c(ccc5nc([C@@H]6CCCN6C(=O)[C@H](NC(=O)OC)c6ccccc6)[nH]c54)cc2-3)[nH]1)[C@@H](C)OC [Example 588] | 0.001 to 0.999 |  | 0.001 to 0.999 | 0.001 to 0.999 | 0.001 to 0.99 | 0.001 to 0.999 | 0.001 to 0.999 |  |  |  | 0.001 to 0.99 |  |  |  | 
COC(=O)N[C@H](C(=O)N1[C@@H](C)CC[C@H]1c1ncc(-c2ccc3c(c2)COc2cc4c(ccc5nc([C@@H]6C[C@H](C)CN6C(=O)[C@H](NC(=O)OC)c6ccccc6)[nH]c54)cc2-3)[nH]1)C(C)C [Example 617] | 0.001 to 0.999 | 0.005 | 0.001 to 0.999 | 0.001 to 0.999 |  | 0.001 to 0.999 | 0.001 to 0.999 |  |  |  | 0.001 to 0.99 |  |  |  | 
COC[C@H]1C[C@@H](c2ncc(-c3ccc4c(c3)COc3cc5c(ccc6nc([C@@H]7CCCN7C(=O)[C@H](NC(=O)OC)c7ccccc7)[nH]c65)cc3-4)[nH]2)N(C(=O)[C@@H](NC(=O)OC)C(C)C)C1 [Example 625] | 0.001 to 0.999 | 0.031 | 0.001 to 0.999 | 0.001 to 0.999 |  | 0.001 to 0.999 | 0.001 to 0.999 |  |  |  | 0.001 to 0.99 |  |  |  | 
COC(=O)N[C@H](C(=O)N1CCC[C@H]1c1ncc(-c2ccc3c(c2)COc2cc4c(cc2-3)CCc2nc([C@@H]3CCCN3C(=O)[C@H](NC(=O)OC)c3ccccc3)[nH]c2-4)[nH]1)C(C)C [Example 434] |  |  |  | 0.001 to 0.999 | 0.001 to 0.99 | 0.001 to 0.999 | 0.001 to 0.999 | 0.001 to 0.999 | 0.001 to 0.999 | 0.001 to 0.99 |  |  |  |  | 
COC[C@H]1C[C@@H](c2nc3ccc4cc5c(cc4c3[nH]2)OCc2cc(-c3cnc([C@@H]4C[C@H](C)CN4C(=O)[C@H](NC(=O)OC)c4ccccc4)[nH]3)ccc2-5)N(C(=O)[C@@H](NC(=O)OC)C(C)C)C1 [Example 572] | 0.001 to 0.999 |  | 0.001 to 0.999 | 0.001 to 0.999 | 0.001 to 0.99 | 0.001 to 0.999 | 0.001 to 0.999 |  |  |  | 0.001 to 0.99 |  |  |  | 
COC(=O)N[C@H](C(=O)N1[C@@H](C)CC[C@H]1c1ncc(-c2cc3c4c(c2)OCc2cc(-c5cnc([C@@H]6C[C@H](C)CN6C(=O)[C@H](NC(=O)OC)c6ccccc6)[nH]5)cc(c2-4)OC3)[nH]1)C(C)C [Example 586] | 0.001 to 0.999 | 0.011 | 0.001 to 0.999 | 0.001 to 0.999 |  | 0.001 to 0.999 | 0.001 to 0.999 |  |  |  | 0.001 to 0.99 |  |  |  | 
COC(=O)N[C@H](C(=O)N1[C@H](c2nc3ccc4cc5c(cc4c3[nH]2)OCc2cc(-c3cnc(C4CCCN4C(=O)[C@H](NC(=O)OC)c4ccccc4)[nH]3)ccc2-5)C[C@@H]2CCC[C@@H]21)C(C)C (some centres unmarked) [Example 574] | 0.001 to 0.999 |  | 0.001 to 0.999 | 0.001 to 0.999 | 0.001 to 0.99 | 0.001 to 0.999 | 0.001 to 0.999 |  |  |  | 0.001 to 0.99 |  |  |  | 
COC(=O)N[C@H](C(=O)N1CCC[C@H]1c1ncc(-c2ccc3c(c2)COc2cc4c(ccc5nc([C@@H]6C[C@H](C)CN6C(=O)[C@@H](NC(=O)OC)C(C)C)[nH]c54)cc2-3)[nH]1)C(C)C [Example 526] | 0.001 to 0.999 |  | 0.001 to 0.999 | 0.001 to 0.999 | 0.001 to 0.99 | 0.001 to 0.999 | 0.001 to 0.999 |  |  |  | 0.001 to 0.99 |  |  |  | 
COC[C@H]1C[C@@H](c2ncc(-c3ccc4c(c3)COc3cc5c(cc3-4)CCc3nc([C@@H]4CCCN4C(=O)[C@@H](NC(=O)OC)C(C)C)[nH]c3-5)[nH]2)N(C(=O)[C@H](NC(=O)OC)c2ccccc2)C1 [Example 606] | 0.001 to 0.999 | 0.034 | 0.001 to 0.999 | 0.001 to 0.999 |  | 0.001 to 0.999 | 0.001 to 0.999 |  |  |  | 0.001 to 0.99 |  |  |  | 
COC[C@H]1C[C@@H](c2nc3ccc4cc5c(cc4c3[nH]2)OCc2cc(-c3cnc([C@@H]4CC[C@H](C)N4C(=O)[C@@H](NC(=O)OC)C(C)C)[nH]3)ccc2-5)N(C(=O)[C@H](NC(=O)OC)c2ccccc2)C1 [Example 594] | 0.001 to 0.999 | 0.013 | 0.001 to 0.999 | 0.001 to 0.999 |  | 0.001 to 0.999 | 0.001 to 0.999 |  |  |  | 0.001 to 0.99 |  |  |  | 
COC[C@H]1C[C@@H](c2nc3ccc4cc5c(cc4c3[nH]2)OCc2cc(-c3cnc([C@@H]4CC[C@H](C)N4C(=O)[C@@H](NC(=O)OC)C(C)C)[nH]3)ccc2-5)N(C(=O)[C@@H](NC(=O)OC)[C@@H](C)OC)C1 [Example 615] | 0.001 to 0.999 | 0.019 | 0.001 to 0.999 | 0.001 to 0.999 |  | 0.001 to 0.999 | 0.001 to 0.999 |  |  |  | 0.001 to 0.99 |  |  |  | 
